{"source": "ChEMBL document CHEMBL1201862", "about": "“PubChem BioAssay data set” (2004)", "assay_in_all_cases": "DTP human tumour cell line panel, 48 h", "key": {"MOLT-4": {"tested_on": "MOLT-4"}, "HCC 2998": {"tested_on": "HCC 2998"}, "Hs-578T": {"tested_on": "Hs-578T"}, "SW-620": {"tested_on": "SW-620"}, "PC-3": {"tested_on": "PC-3"}, "T47D": {"tested_on": "T47D"}, "CCRF-CEM": {"tested_on": "CCRF-CEM"}, "A549": {"tested_on": "A549"}, "HCT-116": {"tested_on": "HCT-116"}, "HCT-15": {"tested_on": "HCT-15"}, "UACC-257": {"tested_on": "UACC-257"}, "OVCAR-8": {"tested_on": "OVCAR-8"}, "EKVX": {"tested_on": "EKVX"}, "NCI-H460": {"tested_on": "NCI-H460"}, "OVCAR-3": {"tested_on": "OVCAR-3"}, "TK-10": {"tested_on": "TK-10"}, "SK-MEL-2": {"tested_on": "SK-MEL-2"}, "UACC-62": {"tested_on": "UACC-62"}, "HOP-92": {"tested_on": "HOP-92"}}, "note": "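Exposure lasted 48 hours, with cells grown in 96-well plates and compounds tested at five concentrations. GI50 is the concentration that inhibits growth by half.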 Calls of active or inactive are those of the source. No stated cut-off is given here; in the data, active = GI50 up to about 1.1 µM and inactive = higher.", "data": [{"compound": "Cc1nc(N)c(N2CCN(CN)CC2)c(O)n1", "values": [{"measurement": "GI50", "setting": "MOLT-4", "result": "> 100 µM (inactive)"}, {"measurement": "GI50", "setting": "HCC 2998", "result": "> 100 µM (inactive)"}, {"measurement": "GI50", "setting": "Hs-578T", "result": "> 100 µM (inactive)"}, {"measurement": "GI50", "setting": "SW-620", "result": "> 100 µM (inactive)"}, {"measurement": "GI50", "setting": "PC-3", "result": "> 100 µM (inactive)"}, {"measurement": "GI50", "setting": "T47D", "result": "> 100 µM (inactive)"}, {"measurement": "GI50", "setting": "CCRF-CEM", "result": "> 100 µM (inactive)"}, {"measurement": "GI50", "setting": "A549", "result": "> 100 µM (inactive)"}, {"measurement": "GI50", "setting": "HCT-116", "result": "> 100 µM (inactive)"}, {"measurement": "GI50", "setting": "HCT-15", "result": "> 100", "unit": "µM"}, {"measurement": "GI50", "setting": "UACC-257", "result": "> 100 µM (inactive)"}, {"measurement": "GI50", "setting": "OVCAR-8", "result": "> 100 µM (inactive)"}, {"measurement": "GI50", "setting": "EKVX", "result": "> 100 µM (inactive)"}, {"measurement": "GI50", "setting": "NCI-H460", "result": "> 100 µM (inactive)"}, {"measurement": "GI50", "setting": "OVCAR-3", "result": "> 100 µM (inactive)"}, {"measurement": "GI50", "setting": "TK-10", "result": "> 100 µM (inactive)"}, {"measurement": "GI50", "setting": "SK-MEL-2", "result": "> 100 µM (inactive)"}]}, {"compound": "CC(=O)c1ccc(NCc2cc(O)ccc2O)cc1", "values": [{"measurement": "GI50", "setting": "UACC-62", "result": "15.3 µM (inactive)"}, {"measurement": "GI50", "setting": "MOLT-4", "result": "3.85 µM (inactive)"}, {"measurement": "GI50", "setting": "Hs-578T", "result": "29.4 µM (inactive)"}, {"measurement": "GI50", "setting": "SW-620", "result": "36.7 µM (inactive)"}, {"measurement": "GI50", "setting": "PC-3", "result": "15.2 µM (inactive)"}, {"measurement": "GI50", "setting": "T47D", "result": "14.3 µM (inactive)"}, {"measurement": "GI50", "setting": "CCRF-CEM", "result": "8.55 µM (inactive)"}, {"measurement": "GI50", "setting": "HCT-116", "result": "17.4 µM (inactive)"}, {"measurement": "GI50", "setting": "HCT-15", "result": 24.9, "unit": "µM"}, {"measurement": "GI50", "setting": "UACC-257", "result": "17.5 µM (inactive)"}, {"measurement": "GI50", "setting": "OVCAR-8", "result": "23.8 µM (inactive)"}, {"measurement": "GI50", "setting": "EKVX", "result": "30 µM (inactive)"}, {"measurement": "GI50", "setting": "NCI-H460", "result": "23.1 µM (inactive)"}, {"measurement": "GI50", "setting": "OVCAR-3", "result": "7.06 µM (inactive)"}, {"measurement": "GI50", "setting": "HOP-92", "result": "17.9 µM (inactive)"}, {"measurement": "GI50", "setting": "TK-10", "result": "15.3 µM (inactive)"}, {"measurement": "GI50", "setting": "SK-MEL-2", "result": "20.4 µM (inactive)"}]}, {"compound": "Cc1cc2ccc(OC(=O)c3ccc(NC(=N)N)cc3)cc2oc1=O", "values": [{"measurement": "GI50", "setting": "UACC-62", "result": "26.9 µM (inactive)"}, {"measurement": "GI50", "setting": "MOLT-4", "result": "22.9 µM (inactive)"}, {"measurement": "GI50", "setting": "Hs-578T", "result": "25.9 µM (inactive)"}, {"measurement": "GI50", "setting": "SW-620", "result": "24.7 µM (inactive)"}, {"measurement": "GI50", "setting": "PC-3", "result": "28.6 µM (inactive)"}, {"measurement": "GI50", "setting": "T47D", "result": "26.8 µM (inactive)"}, {"measurement": "GI50", "setting": "CCRF-CEM", "result": "30.5 µM (inactive)"}, {"measurement": "GI50", "setting": "A549", "result": "36.2 µM (inactive)"}, {"measurement": "GI50", "setting": "HCT-116", "result": "24.1 µM (inactive)"}, {"measurement": "GI50", "setting": "HCT-15", "result": "> 100", "unit": "µM"}, {"measurement": "GI50", "setting": "UACC-257", "result": "35.2 µM (inactive)"}, {"measurement": "GI50", "setting": "OVCAR-8", "result": "33.3 µM (inactive)"}, {"measurement": "GI50", "setting": "EKVX", "result": "30.5 µM (inactive)"}, {"measurement": "GI50", "setting": "NCI-H460", "result": "31.4 µM (inactive)"}, {"measurement": "GI50", "setting": "OVCAR-3", "result": "16.5 µM (inactive)"}, {"measurement": "GI50", "setting": "HOP-92", "result": "41.6 µM (inactive)"}, {"measurement": "GI50", "setting": "TK-10", "result": "22.5 µM (inactive)"}, {"measurement": "GI50", "setting": "SK-MEL-2", "result": "25.4 µM (inactive)"}]}, {"compound": "COc1cccc(/C=C2\\SC(=S)N(/C=C3\\C(=O)Oc4ccccc4C3=O)C2=O)c1O", "values": [{"measurement": "GI50", "setting": "UACC-62", "result": "53 µM (inactive)"}, {"measurement": "GI50", "setting": "MOLT-4", "result": "39.1 µM (inactive)"}, {"measurement": "GI50", "setting": "HCC 2998", "result": "28.8 µM (inactive)"}, {"measurement": "GI50", "setting": "Hs-578T", "result": "25.5 µM (inactive)"}, {"measurement": "GI50", "setting": "SW-620", "result": "44.1 µM (inactive)"}, {"measurement": "GI50", "setting": "PC-3", "result": "51.8 µM (inactive)"}, {"measurement": "GI50", "setting": "T47D", "result": "48.6 µM (inactive)"}, {"measurement": "GI50", "setting": "CCRF-CEM", "result": "38.7 µM (inactive)"}, {"measurement": "GI50", "setting": "A549", "result": "59.7 µM (inactive)"}, {"measurement": "GI50", "setting": "HCT-116", "result": "56.9 µM (inactive)"}, {"measurement": "GI50", "setting": "HCT-15", "result": 43.2, "unit": "µM"}, {"measurement": "GI50", "setting": "UACC-257", "result": "68.2 µM (inactive)"}, {"measurement": "GI50", "setting": "OVCAR-8", "result": "80 µM (inactive)"}, {"measurement": "GI50", "setting": "EKVX", "result": "> 100 µM (inactive)"}, {"measurement": "GI50", "setting": "NCI-H460", "result": "48.1 µM (inactive)"}, {"measurement": "GI50", "setting": "OVCAR-3", "result": "34.4 µM (inactive)"}, {"measurement": "GI50", "setting": "SK-MEL-2", "result": "45.7 µM (inactive)"}]}, {"compound": "COC(=O)CCCc1c(-c2[nH]c3ccccc3c2CCCC(=O)OC)[nH]c2ccccc12", "values": [{"measurement": "GI50", "setting": "UACC-62", "result": "> 100 µM (inactive)"}, {"measurement": "GI50", "setting": "MOLT-4", "result": "> 100 µM (inactive)"}, {"measurement": "GI50", "setting": "Hs-578T", "result": "> 100 µM (inactive)"}, {"measurement": "GI50", "setting": "SW-620", "result": "> 100 µM (inactive)"}, {"measurement": "GI50", "setting": "PC-3", "result": "> 100 µM (inactive)"}, {"measurement": "GI50", "setting": "T47D", "result": "> 100 µM (inactive)"}, {"measurement": "GI50", "setting": "CCRF-CEM", "result": "> 100 µM (inactive)"}, {"measurement": "GI50", "setting": "A549", "result": "> 100 µM (inactive)"}, {"measurement": "GI50", "setting": "HCT-116", "result": "> 100 µM (inactive)"}, {"measurement": "GI50", "setting": "HCT-15", "result": "> 100", "unit": "µM"}, {"measurement": "GI50", "setting": "UACC-257", "result": "> 100 µM (inactive)"}, {"measurement": "GI50", "setting": "OVCAR-8", "result": "> 100 µM (inactive)"}, {"measurement": "GI50", "setting": "EKVX", "result": "> 100 µM (inactive)"}, {"measurement": "GI50", "setting": "NCI-H460", "result": "> 100 µM (inactive)"}, {"measurement": "GI50", "setting": "OVCAR-3", "result": "> 100 µM (inactive)"}, {"measurement": "GI50", "setting": "HOP-92", "result": "> 100 µM (inactive)"}, {"measurement": "GI50", "setting": "TK-10", "result": "> 100 µM (inactive)"}, {"measurement": "GI50", "setting": "SK-MEL-2", "result": "> 100 µM (inactive)"}]}, {"compound": "O=C(/C=C/c1cccs1)c1ccc(Cl)cc1", "values": [{"measurement": "GI50", "setting": "UACC-62", "result": "> 100 µM (inactive)"}, {"measurement": "GI50", "setting": "MOLT-4", "result": "23.3 µM (inactive)"}, {"measurement": "GI50", "setting": "HCC 2998", "result": "> 100 µM (inactive)"}, {"measurement": "GI50", "setting": "Hs-578T", "result": "> 100 µM (inactive)"}, {"measurement": "GI50", "setting": "SW-620", "result": "28.8 µM (inactive)"}, {"measurement": "GI50", "setting": "PC-3", "result": "> 100 µM (inactive)"}, {"measurement": "GI50", "setting": "T47D", "result": "56.1 µM (inactive)"}, {"measurement": "GI50", "setting": "CCRF-CEM", "result": "29.9 µM (inactive)"}, {"measurement": "GI50", "setting": "A549", "result": "> 100 µM (inactive)"}, {"measurement": "GI50", "setting": "HCT-116", "result": "41.5 µM (inactive)"}, {"measurement": "GI50", "setting": "HCT-15", "result": 41, "unit": "µM"}, {"measurement": "GI50", "setting": "UACC-257", "result": "> 100 µM (inactive)"}, {"measurement": "GI50", "setting": "OVCAR-8", "result": "90.4 µM (inactive)"}, {"measurement": "GI50", "setting": "EKVX", "result": "> 100 µM (inactive)"}, {"measurement": "GI50", "setting": "NCI-H460", "result": "> 100 µM (inactive)"}, {"measurement": "GI50", "setting": "TK-10", "result": "> 100 µM (inactive)"}, {"measurement": "GI50", "setting": "SK-MEL-2", "result": "> 100 µM (inactive)"}]}]}
